Results reported in patent publication US20260102359A1, “COMBINATION TREATMENT OF DERMAL AND TRANSDERMAL FIBROTIC DISEASES, DISORDERS AND ASSOCIATED PAIN AND INFLAMMATION” (ERESINA, LLC, priority 2022, published 2026).
Where a name gives a salt, the structure may show the parent alone. Read-outs that look alike come from different tables or passages of the source. *1 amine or outer side, *2 acyl side, *3 side chain or, on linkers, in order; H or OH if unused. Where a SMILES comes first, the peptide text is derived from it. Bridges are numbered along the chain shown (N, C = ends). [ ]: non-standard residue; d: D form. The star is where a group is joined. pTerphenylCO(4''-OnC5H11) = CCCCCOc1ccc(-c2ccc(-c3ccc(C(=O)*)cc3)cc2)cc1; Orn(4R-OH,5R-OH) = O=C([C@H](C[C@@H](O)[C@@H](O)N[*:3])N[*:1])[*:2]; hTyr(3S-OH,4S-OH) = N[C@H](C(=O)O)[C@H](O)[C@@H](O)c1ccc(O)cc1; Pro(3S-OH,4S-Me) = C[C@H]1CN[C@H](C(=O)O)[C@H]1O; Hyp = O=C(O)[C@@H]1C[C@@H](O)CN1

Tests used:
[1] = test system: hDMFa myofibroblast cells; test: Myofibroblast cytotoxicity, MTS cell viability assay
[2] = test system: hDMFa myofibroblast cells
[3] = serum-free media with inhibitor 8-12 hours, MTS cell viability, inhibition normalized as percentage of negative control
[4] = MTS viability, 8-12 hours incubation in serum-free inhibitor media, normalized to negative control
[5] = 8-12 hours in serum-free inhibitor media, […]
[6] = serum-free media with inhibitor 8-12 hours, MTS viability normalized to negative control

Q: OCCCCCCCCO [Cmpd 38, 1,8-Octanediol] was tested. Which “Compound Myofibroblast Cytotoxicity Activity” value [1, 3] did it give?
A: The value was “+”.

Q: How did the “Compound Myofibroblast Cytotoxicity Activity” value [1, 3] turn out when Cc1cc(O)cc(C(C)C)c1 [Cmpd 53] was run?
A: The value was “+”.

Q: CCCCCOc1ccc(-c2ccc(-c3ccc(C(=O)N[C@H]4C[C@@H](O)[C@@H](O)NC(=O)[C@@H]5[C@@H](O)[C@@H](C)CN5C(=O)[C@H]([C@@H](C)O)NC(=O)[C@H]([C@H](O)[C@@H](O)c5ccc(O)cc5)NC(=O)[C@@H]5C[C@@H](O)CN5C(=O)[C@H]([C@@H](C)O)NC4=O)cc3)cc2)cc1 [Cmpd 124, Anidulafungin] ({pTerphenylCO(4''-OnC5H11)}-[Orn(4R-OH,5R-OH)]T[Hyp][hTyr(3S-OH,4S-OH)]T[Pro(3S-OH,4S-Me)]; lactam 1-C) was tested. Which “Compound Myofibroblast Cytotoxicity Activity” value [1, 3] did it give?
A: Its value is “+++++”.

Q: With C[C@H]1[C@H](C)CC[C@]2(C(=O)O)CC[C@]3(C)C(=CC[C@@H]4[C@@]5(C)C[C@@H](O)[C@H](O)[C@@](C)(CO)[C@@H]5CC[C@]43C)[C@H]12 [Cmpd 135, Asiatic acid] as the compound, how does the “Compound Myofibroblast Cytotoxicity Activity” value [1, 3] read?
A: Its value is “+++++”.

Q: Which “Compound Myofibroblast Cytotoxicity Activity” value [1, 3] does the source give for CC1=C(C(=O)OC(C)C)C(c2cccc([N+](=O)[O-])c2)C(C(=O)OC2CN(C(c3ccccc3)c3ccccc3)C2)=C(N)N1 (stereo not drawn) [Cmpd 148, Azelnidipine] here?
A: The value was “+++++”.

Q: For COC(=O)OCOc1c2n(ccc1=O)N([C@@H]1c3ccccc3SCc3c1ccc(F)c3F)[C@@H]1COCCN1C2=O [Cmpd 155, Baloxavir marboxil], which “Compound Myofibroblast Cytotoxicity Activity” value [1, 3] is on record?
A: Its value is “+++++”.

Q: Which “Compound Myofibroblast Cytotoxicity Activity” value [1, 3] does the source give for Cc1ccc([C@@H]2O[C@H](CO)[C@@H](O)[C@H](O)[C@H]2O)cc1Cc1ccc(-c2ccc(F)cc2)s1 [Cmpd 208, Canagliflozin] here?
A: Its value is “+++++”.

Q: CCCCCCCCCCCCCCCC[N+](C)(C)C.[Br-] [Cmpd 242, Cetrimonium Bromide (CTAB)] was tested. Which “Compound Myofibroblast Cytotoxicity Activity” value [1, 3] did it give?
A: The value was “+++++”.

Q: With COc1ccc2c(c[n+](C)c3c4cc5c(cc4ccc23)OCO5)c1OC.[Cl-] [Cmpd 244, Chelerythrine Chloride] as the compound, how does the “Compound Myofibroblast Cytotoxicity Activity” value [1, 3] read?
A: Its value is “+++++”.

Q: With CCCCCCCCCCCC[N+](C)(C)CCOc1ccccc1 [Cmpd 377, Domiphen Bromide] as the compound, how does the “Compound Myofibroblast Cytotoxicity Activity” value [1, 4] read?
A: The value was “+++++”.

Q: Which “Compound Myofibroblast Cytotoxicity Activity” value [1, 4] does the source give for CO[C@H]1C[C@H](O[C@H]2[C@H](C)O[C@@H](O[C@@H]3/C(C)=C/C[C@@H]4C[C@@H](C[C@]5(C=C[C@H](C)[C@@H](C6CCCCC6)O5)O4)OC(=O)[C@@H]4C=C(C)[C@@H](O)[C@H]5OC/C(=C\C=C\[C@@H]3C)[C@]54O)C[C@@H]2OC)O[C@@H](C)[C@@H]1O [Cmpd 379, Doramectin] here?
A: The value was “+++++”.

Q: For CC(C)(C)c1cc(C(C)(C)C)c(NC(=O)c2c[nH]c3ccccc3c2=O)cc1O [Cmpd 545, Ivacaftor (VX-770)], which “Compound Myofibroblast Cytotoxicity Activity” value [1, 4] is on record?
A: Its value is “+++++”.

Q: NCCC(=O)N[C@@H](Cc1cnc[nH]1)C(=O)O [Cmpd 568, L-Carnosine] was tested. Which “Compound Myofibroblast Cytotoxicity Activity” value [1, 5] did it give?
A: The value was 8.

Q: Which “Compound Myofibroblast Cytotoxicity Activity” value ([1]; 8-12 hours in serum-free inhibitor media, […], HCl) does the source give for Cl.NCCCC[C@H](N)C(=O)O [Cmpd 597, L-Lysine HCl] here?
A: The value was “+”.

Q: How did the “Compound Myofibroblast Cytotoxicity Activity” value [1, 5] turn out when C#C[C@]1(O)CC[C@H]2[C@@H]3CCC4=CCCC[C@@H]4[C@H]3CC[C@@]21C [Cmpd 623, Lynestrenol] was run?
A: Its value is “+++++”.

Q: With CN(C)CCC=C1c2ccccc2C(C)(C)c2ccccc21 [Cmpd 647, Melitracen hydrochloride] as the compound, how does the “Compound Myofibroblast Cytotoxicity Activity” value [1, 5] read?
A: Its value is “+++++”.

Q: Which “Compound Myofibroblast Cytotoxicity Activity” value [1, 5] does the source give for CC(=O)Oc1cc(C)c(OC(C)=O)c2ccccc12 [Cmpd 650, Menadiol Diacetate] here?
A: The value was “+++++”.

Q: For CCCCCCCCN=c1ccn(CCCCCCCCCCn2ccc(=NCCCCCCCC)cc2)cc1 [Cmpd 730, Octenidine (dihydrochloride)], which “Compound Myofibroblast Cytotoxicity Activity” value [1, 5] is on record?
A: The value was “+++++”.

Q: CC1(C)CC[C@]2(C(=O)O)CC[C@]3(C)C(=CC[C@@H]4[C@@]5(C)CC[C@H](O)C(C)(C)[C@@H]5CC[C@]43C)[C@@H]2C1 [Cmpd 732, Oleanolic acid] was tested. Which “Compound Myofibroblast Cytotoxicity Activity” value [1, 5] did it give?
A: Its value is “+++++”.

Q: CCCCCCCCCCCCCCCCCCOP(=O)([O-])OC1CC[N+](C)(C)CC1 [Cmpd 771, Perifosine] was tested. Which “Compound Myofibroblast Cytotoxicity Activity” value [1, 5] did it give?
A: Its value is “+++++”.

Q: Which “Compound Myofibroblast Cytotoxicity Activity” value [1, 5] does the source give for O=C1[C@H]2CCCC[C@H]2C(=O)N1CCCCN1CCN(c2nsc3ccccc23)CC1 [Cmpd 772, Perospirone hydrochloride] here?
A: The value was “+++++”.

Q: Which “Compound Myofibroblast Cytotoxicity Activity” value [1, 5] does the source give for Nc1ccc2cc3ccc(N)cc3nc2c1.Nc1ccc2cc3ccc(N)cc3nc2c1.O=S(=O)(O)O [Cmpd 798, Proflavine Hemisulfate] here?
A: Its value is “+++++”.

Q: How did the “Compound Myofibroblast Cytotoxicity Activity” value [1, 6] turn out when COc1ccc2c(O[C@@H]3C[C@H]4C(=O)N[C@]5(C(=O)NS(=O)(=O)C6CC6)C[C@H]5/C=C\CCCCN(C)C(=O)[C@@H]4C3)cc(-c3nc(C(C)C)cs3)nc2c1C [Cmpd 863, Simeprevir] was run?
A: The value was “+++++”.

Q: For CN[C@@H]1C[C@H]2O[C@@](C)([C@@H]1OC)n1c3ccccc3c3c4c(c5c6ccccc6n2c5c31)C(=O)NC4 [Cmpd 888, Staurosporine], which “Compound Myofibroblast Cytotoxicity Activity” value [1, 6] is on record?
A: The value was “+++++”.

Q: With Cc1ccc(Sc2ccccc2N2CCNCC2)c(C)c1 [Cmpd 1011, Vortioxetine] as the compound, how does the “Compound Myofibroblast Cytotoxicity Activity” value [1, 6] read?
A: Its value is “+++++”.

Q: With Br.Cc1ccc(Sc2ccccc2N2CCNCC2)c(C)c1 [Cmpd 1012, Vortioxetine (Lu AA21004) HBr] as the compound, how does the “Compound Myofibroblast Cytotoxicity Activity” value [1, 6] read?
A: Its value is “+++++”.

Q: Nc1ccn([C@H]2CC[C@@H](CO)O2)c(=O)n1 [Cmpd 1024, Zalcitabine] was tested. Which “Compound Myofibroblast Cytotoxicity Activity” value [2] did it give?
A: Its value is “++++”.

Q: Which “Compound Myofibroblast Cytotoxicity Activity” value [2] does the source give for O=C1Cc2cc(CCN3CCN(c4nsc5ccccc45)CC3)c(Cl)cc2N1 [Cmpd 1029, Ziprasidone HCl] here?
A: The value was “++”.

Q: Which “Compound Myofibroblast Cytotoxicity Activity” value [2] does the source give for Cilengitide [Cmpd 261] here?
A: Its value is “++++”.

Q: With Cyclo(RGDyK) [Cmpd 303] as the compound, how does the “Compound Myofibroblast Cytotoxicity Activity” value [2] read?
A: The value was “++”.

Q: With D-(−)-Isoascorbic Acid [Cmpd 306] as the compound, how does the “Compound Myofibroblast Cytotoxicity Activity” value [2] read?
A: Its value is “+”.

Q: How did the “Compound Myofibroblast Cytotoxicity Activity” value [2] turn out when Fumalic acid [Cmpd 474] was run?
A: The value was “++”.

Q: With Icatibant Acetate [Cmpd 514] as the compound, how does the “Compound Myofibroblast Cytotoxicity Activity” value [2] read?
A: Its value is “++”.

Q: How did the “Compound Myofibroblast Cytotoxicity Activity” value [2] turn out when Lecithin, Soybean [Cmpd 577] was run?
A: The value was “+”.

Q: Sericin Gel [Cmpd 859] was tested. Which “Compound Myofibroblast Cytotoxicity Activity” value [1, 6] did it give?
A: The value was “+”.

Q: For Sodium Aescinate [Cmpd 869], which “Compound Myofibroblast Cytotoxicity Activity” value [1, 6] is on record?
A: Its value is “+++++”.

Q: How did the “Compound Myofibroblast Cytotoxicity Activity” value [2] turn out when Teicoplanin [Cmpd 921] was run?
A: Its value is “+++”.

Q: With Zinc Pyrithione [Cmpd 1026] as the compound, how does the “Compound Myofibroblast Cytotoxicity Activity” value [2] read?
A: Its value is “+++++”.

Q: For beta-Alanine [Cmpd 174], which “Compound Myofibroblast Cytotoxicity Activity” value [2] is on record?
A: Its value is “++++”.
